# Measured values from US20250084380A1, “ARTIFICIAL BRAIN TISSUE” (priority 2016, published 2025).
# Tests used:
# [1] = system: hiPSC derived 3D neural culture; test: Local field potential recordings of hiPSC-derived 3D neural culture with activity inhibitors; format: cell-based, human; settings: for spontaneous and inducible activity (LFP): CNQX 50 μM, AP5 250 μM together
# [2] = system: microglia; test: Suppression of microglia in 2D primary astrocytic cultures; format: cell-based, mice
# Text: In addition to primary microglia, an immortalized microglial cell line (N9) was also used. It was noted that this line has a fast proliferation rate and appeared to suppress neuronal cultures, so primary cell lines were maintained as a source of microglia. In general, it is thought that microglia inhibit growth of astrocytic populations. Microglia proliferation is strictly regulated by colony-stimulating factor 1 and its receptor on microglia membranes. Without wishing to be held to a particular theory, it was contemplated that if the receptor for CSF1 growth factor was inhibited, the growth of microglia in astrocytic population would be inhibited. Accordingly, a 2 week experiment was performed in two dimensional (2D) culture conditions to see if microglial growth could be inhibited. For this experiment, the glial media that was supplied with 1 uM supplement of CSF1R inhibitors was used. Media was changed every second day in 96 well plates with 10.000 mice primary astrocytic cultures. […] Number of microglia was determined in cells treated with CSF1R inhibitor or control (FIG. 1, panel N) and further evaluated via WST-1 assay (FIG. 1, panel O).
# [3] = system: primary murine striatal neurons, astrocytes, and microglia; test: 3D tri-culture intracerebral hemorrhage model with necrostatin-1 treatment; format: cell-based, mouse; settings: for total cell number / DNA content (DNA quantification): nec-1 conditions, 24 hour; for ROS / reactive species level vs untreated samples: nec-1 groups, 4 hours post-injury, 250 mol/mL nec-1 for 15 minutes prior to injury
# Protocol: Hemorrhage injuries were performed at the Neuroscience Center at Massachusetts General Hospital. Samples were transported to the Center, incubated for one hour at 37° C., and then injected with 10 μL of mouse blood and incubated for another hour before being returned to the Tufts University Biomedical Engineering Department. Samples were evaluated at 4 and 24 hours post-injury. For necrostatin-1 treatment, samples were incubated with […] necrostatin-1 for 15 minutes prior to performing a hemorrhage injury.
# For all studies, groups included: untreated controls, sham, sham plus nec-1 treatment, hemorrhage (ICH) or ICH plus nec-1 treatment samples.
# Cell viability was assessed with a Live/Dead assay, which uses a mixture of calcein and propidium iodide stains (1.2 μL of calcein (reconstituted in DMSO) and 10 μL of propidium iodide (“PI”) per 1 mL of final stain solution). Samples were washed with PBS 2-3 times and any remaining PBS was aspirated. Sponges were transferred to a 96 well plate, 100 μL of calcein/PI stain solution was added to each sample, and they were incubated at 37° C., covered in aluminum foil for 30 minutes. The stain solution was then aspirated, samples were washed with PBS 2-3 times, and then imaged using a confocal microscop with lasers of wavelengths of […] (to detect calcein staining) and […] (to detect PI staining).
# DNA was quantified using a PicoGreen assay. To prepare samples for DNA quantification, they were first washed once with PBS, followed by addition of 100 μL of 0.05% Triton-X to cover the sponge. Samples were stored at −20° C. until use. For measurements, samples were thawed at room temperature and homogenized with scissors. Supernatant was collected and placed in a tube, on ice. Enough 1×TE Buffer needed for a dilution of 100 μL 1×TE buffer and 200 μL supernatant for each sample was prepared, and 4 mL of 1×TE buffer was prepared for the standards. 20×TE buffer was diluted 1:20 in diH20 to get 1×TE buffer. 1×TE buffer was then mixed with sample supernatants in separate 1.5 mL tubes. 100 μL of each sample was added to a 96-well plate, in triplicate. Standards were prepared by mixing the DNA working solution and the TE buffer to create 400 μL solutions with the following DNA concentrations: 2000 ng/mL, 1000 ng/mL, 500 ng/mL, 200 ng/mL, 100 ng/mL, 50 ng/mL, 20 ng/mL, and 0 ng/mL. Once samples were ready for analysis and the fluorescence plate reader was warmed and ready, PicoGreen stain was added to each sample. PicoGreen stain was prepared by making a 200-fold dilution of the stock PicoGreen stain in 1×TE Buffer for a final volume of 100 μL per sample plus 30%. The PicoGreen solution was protected from light and 100 μL of the diluted PicoGreen solution was added to each sample, then incubated at room temperature for 2-3 minutes. Fluorescence of samples was read using a plate-reader with 485 nm excitation and 538 nm emission. Fluorescence readings were converted into cell counts by using standard calculations to determine DNA content of each sample, which was then divided by 5.5 pg, which is the average mass of DNA in neurons (Moroz and Kohn 2013).
# LDH assays were run on all samples and standards in duplicate, using a commercially available kit. An NADH standard was prepared using the stock NADH standard solution and the LDH assay buffer to achieve 50 μL each of the following concentrations: 0, 2.5, 5, 7.5, 10, and 12.5 nmole per 50 μL. 500 μL of LDH assay buffer was added to each sample for every 100 mg of tissue and samples were then homogenized with scissors, on ice, prior to centrifuging for 15 min at 10,000 xg and 4° C. 50 μL of the supernatant was added into wells in a 96 well plate (in duplicate) and LDH buffer was added to a total volume of 50 μL per well. For each reaction (sample and standards), 2 μL of LDH substrate mix was added to 48 μL of LDH assay buffer to create a Master Reaction Mix. 50 µL of reaction mix was added to each well and contents were mixed by pipetting up and down. […]
# [4] = system: microglia; test: Microglia activation with LPS treatment; format: cell-based, rat/mouse; settings: 100 ng/mL LPS; 3 days
# Protocol: DAPI was used as a nuclear counterstain. Microglia were also assessed for their ability to activate upon or following treatment with lipopolysaccharide (LPS) (FIG. 1, panel G), and further analyzed post-treatment for expression of inducible nitric oxide synthase (iNOS) (FIG. 1, panel H) and interleukin 1-beta (IL1-beta) (FIG. 1, panel I). Microglia activation ability with LPS (lipopolysaccharide) treatment was performed with 100 ng/mL of LPS to activate microglia cells (20,000 cells per well, 96 well plate).
compound,measurement,setting,value
"N[C@H](CCCP(=O)(O)O)C(=O)O [AP-5, (2R)-amino-5-phosphonopentanoate]",spontaneous and inducible activity (LFP),[1],partially blocked
"N#Cc1cc2c(cc1[N+](=O)[O-])=NC(=O)C(=O)N=2 [CNQX, 6-cyano-7-nitroquinoxaline-2,3-dione]",spontaneous and inducible activity (LFP),[1],partially blocked
"NC1=N[C@H](O)[C@H]2[C@H]3O[C@]4(O)O[C@@H]([C@@H](O)[C@@]2(N1)[C@@H]4O)[C@]3(O)CO [TTX, tetrodotoxin]",activity (LFP),[1],blocked
O=P(O)(O)C(Cl)(Cl)P(=O)(O)O [clodronic acid],suitability to suppress microglial growth and activity,[2],found unacceptable
"CN1C(=O)C(Cc2c[nH]c3ccccc23)NC1=S (centres unmarked) [necrostatin-1, Necrostatin-1]","reactive species (ROS-RNS assay), differences between groups",[3]; 24 hours post-injury,No significant differences
same,LDH activity vs the two sham groups,[3]; ICH+nec-1,statistically higher levels of LDH activity
same,LDH activity,"[3]; ICH+nec-1 vs ICH, 24 hours",slightly lower level
same,reactive species (ROS-RNS assay),[3]; Sham+nec-1 compared to sham alone,significantly lower level of reactive species
same,total cell number / DNA content (DNA quantification),[3],higher DNA content
same,total cell number / DNA content (DNA quantification),[3]; listed as nec-1,significantly more cells were counted in nec-1 conditions
same,ROS / reactive species level vs untreated samples,[3],statistically significant decrease in the amount of reactive species
same,ROS / reactive species level vs untreated samples,[3]; listed as nec-1,significantly lower ROS levels
same,cell count and viability,"[3]; sham+nec-1, 24 hours",highest cell count and viability after 24 hours
lipopolysaccharide [LPS],microglia activation,[4],efficient to activate microglia
